Entries after “also recorded” stand apart in the source; their conditions may differ. No end group written: not given here. K(rhodamine) = not defined here; code X = not defined here

One test deals with mouse peritoneal macrophages. Description: In vivo fluorescent labeling of macrophages in a mouse abdominal cavity. The conditions noted are these: in vivo probe labeling, then F4/80 antibody double-stain of extracted peritoneal cells. How it is done: Dilute 300 μL of 50 μM AK9 fluorescent probe solution with serum-free DMEM incomplete medium to obtain 1 mL of solution, then inject into the abdominal cavities of 5-8 week old Kunming mice. After 4 hours, inject 5 mL of 1×PBS, and massage. After 10 minutes, sacrifice the mice by cervical vertebra dislocation. Cut the abdominal cavity skin of the mice, pierce the abdominal wall muscle by syringe, and extract the fluid in the abdominal cavity of the mice. Centrifuge the extracted peritoneal fluid at 1000 rpm for 5 min, wash twice with 1×PBS. Double-stain an appropriate number of cells with Alexa Fluor 488 anti-mouse F4/80 antibody (Biolegend). Add the stained cells to a 96-well plate and stain with a nuclear dye Nucblue (Invitrogen). Observe under EVOS FL Auto fluorescence microscope (Life Technologies, 20×, light source 50%, exposure 200 ms, gain 10) after the suspended cells were settled down at the bottom of the plate.
Table 1 lists probes, which contain the polypeptide fragments from the C-terminal fragments of Triokinases/FMN cyclases of different species and were prepared by a similar process as described in Examples 1 and 2, and in vivo imaging results of mouse peritoneal macrophages using these probes.
For the substance “AILEVLQS-Y (AILEVLQS-{K(rhodamine)}; reading uncertain) [AK9, Human Triokinase/FMN cyclase C-terminal fragment; Y is lysine + rhodamine fluorescent labeling group on the lysine side chain]”, the “labeling on the same cells, probe and F4/80 antibody” value is reported as “labeled on the same cells”.

The test is the same for the next values; noted with them: probe injected into abdominal cavity, cells extracted after 4 hours, fluorescence microscope.
With “AAILRAILEVLQS-Y (AAILRAILEVLQSY; also: C-terminal Y: reporter or Cys/Lys + reporter (rhodamine or FITC), not given here; listed as Homo sapiens) [AK14, Y = reporter or cysteine/lysine + reporter]”, the “in vivo labeling / recognition of mouse peritoneal macrophages by the fluorescent probe” value (from here on “in vivo labeling / recognition”) was “can effectively recognize macrophages in vivo; also recorded: can be labeled”. The same measure, in the same setting: the result for “AILEVLQS-Y (AILEVLQS-{K(rhodamine)}; reading uncertain) [AK9, Human Triokinase/FMN cyclase C-terminal fragment; Y is lysine + rhodamine fluorescent labeling group on the lysine side chain]” reads “can effectively recognize macrophages in vivo”; that for “AVLEVLQG-Y (AVLEVLQGY; also: reporter type not given here) [Hx-AVGK9, Y = reporter or cysteine/lysine + reporter]”, “can be labeled”; that for “ILRAILEVLQS-Y (ILRAILEVLQSY; also: reporter type not given here; listed as Homo sapiens) [IK12, Y = reporter or cysteine/lysine + reporter]”, “can effectively recognize macrophages in vivo; also recorded: can be labeled”. For the substance “LQPDPGAVAAAAVLRAVLEGLQG-Y (LQPDPGAVAAAAVLRAVLEGLQGY; also: reporter type not given here; listed as Gallus gallus) [LK24, Y = reporter or cysteine/lysine + reporter]”, the “in vivo labeling / recognition” value was “can effectively recognize macrophages in vivo; also recorded: can also be labeled”. Regarding “LQPDPSAVAAAAVLRAVLEVLQG-Y (LQPDPSAVAAAAVLRAVLEVLQGY; also: reporter type not given here) [Cx-LK24, Y = reporter or cysteine/lysine + reporter]”, the “in vivo labeling / recognition” value is reported as “can be labeled”.

“LRAILEVLQS-Y (LRAILEVLQSY; also: reporter type not given here; listed as Homo sapiens) [LK11, Y = reporter or cysteine/lysine + reporter]”: the “in vivo labeling / recognition” value is listed as “can effectively recognize macrophages in vivo; also recorded: can be labeled”. Still for that read-out and setting: the entry for “PGAVAAAAILRAILEVLQS-Y (PGAVAAAAILRAILEVLQSY; also: reporter type not given here; listed as Homo sapiens) [PK20, Y = reporter or cysteine/lysine + reporter]” is “can effectively recognize macrophages in vivo; also recorded: can be labeled”.

As to “VLRAVLEVLQG-Y (VLRAVLEVLQGY; also: reporter type not given here) [Hx-VVGK12, Y = reporter or cysteine/lysine + reporter]”, the “in vivo labeling / recognition” value is “can be labeled”.

With “X-DQPDPGAVAAAAIFRAILEVLQTKAA ({code X}-DQPDPGAVAAAAIFRAILEVLQTKAA; reading uncertain; also: reporter type not given here, printed as X-DQPDPGAVAAAAIFRAILEVLQTKAA; listed as Rattus norvegicus) [r-KA27, X = reporter or cysteine/lysine + reporter]”, the “in vivo labeling / recognition” value is “can effectively recognize macrophages in vivo; also recorded: can be labeled”. The same measure, in the same setting: the entry for “X-DQPDPGAVAAAAILRAILEVLQSQGA ({code X}-DQPDPGAVAAAAILRAILEVLQSQGA; reading uncertain; also: reporter type not given here, printed as X-DQPDPGAVAAAAILRAILEVLQSQGA; listed as Sus scrofa) [b-KA27, X = reporter or cysteine/lysine + reporter]” is “can effectively recognize macrophages in vivo; also recorded: can be labeled”. Take “X-DQPDPGAVAAAAILRTILEVLQSQGV ({code X}-DQPDPGAVAAAAILRTILEVLQSQGV; reading uncertain; also: reporter type not given here, printed as X-DQPDPGAVAAAAILRTILEVLQSQGV; listed as Canis lupus) [d-KV27, X = reporter or cysteine/lysine + reporter]”: the “in vivo labeling / recognition” value is listed as “can effectively recognize macrophages in vivo; also recorded: can be labeled”. Same read-out and setting: the result for “X-EQPDPGAVAAAAILRAILEVLQS ({code X}-EQPDPGAVAAAAILRAILEVLQS; reading uncertain; also: reporter type not given here, printed as X-EQPDPGAVAAAAILRAILEVLQS; listed as Homo sapiens) [KS24, X = reporter or cysteine/lysine + reporter at N-terminal]” reads “can effectively recognize macrophages in vivo; also recorded: can be labeled”; that for “X-EQPDPSAVAAAAILRAILEVLQG (not fully specified (N-terminus); printed as X-EQPDPSAVAAAAILRAILEVLQG; also: N-terminal reporter, not given here) [KESG24, X = reporter or cysteine/lysine + reporter]”, “can be labeled”; that for “X-TKNMEAGAGRASYISSARLEQPDPGAVAAAAILRAILEVLQS (not fully specified (N-terminus); listed as Homo sapiens) [TS42]”, “can effectively recognize macrophages in vivo; also recorded: can be labeled”.

Another test has as its system mouse peritoneal macrophages. Description: In vitro fluorescent labeling of mouse peritoneal macrophages at different incubation times. The test is classed as cell-based. The conditions noted are these: incubating only for 10 min. How it is done:
Referring to Example 9, using the same treatment process, the macrophages from mouse abdominal cavity were obtained. After culturing for 6 days, the cultured peritoneal cells were labeled with KS24 fluorescent probes for different incubation times. Then the cells were observed under a fluorescence microscope (20×, light source 20%, exposure 200 ms, gain 5).
Nucblue (blue fluorescence) was further used for nuclear staining. In each of FIGS. 14A, 14B, 14C, and 14D, i) is an image labeled with the KS24 fluorescent probe (shown in red fluorescence in the original fluorescence color image), and ii) is an image obtained by nuclear staining with Nucblue (shown in blue fluorescence in the original fluorescence color image), and iii) is a merged image of i) and ii).
“X-EQPDPGAVAAAAILRAILEVLQS ({code X}-EQPDPGAVAAAAILRAILEVLQS; reading uncertain; also: reporter type not given here, printed as X-EQPDPGAVAAAAILRAILEVLQS; listed as Homo sapiens) [KS24, X = reporter or cysteine/lysine + reporter at N-terminal]”: the “fluorescence detection with microscope” value was “can be even detected”.

The same test, now with this note: incubation 10, 20, 40 and 80 min; cells cultured 6 days.
Turning to “X-EQPDPGAVAAAAILRAILEVLQS ({code X}-EQPDPGAVAAAAILRAILEVLQS; reading uncertain; also: reporter type not given here, printed as X-EQPDPGAVAAAAILRAILEVLQS; listed as Homo sapiens) [KS24, X = reporter or cysteine/lysine + reporter at N-terminal]”, the “labeled fluorescence of the cells versus incubation time” value is “gradually becomes stronger with the incubation time”.

These data come from US12031986B2, “Polypeptide for targeting recognition of immune cells and application thereof” (KEYANGLE LIFE TECHNOLOGY CO., LTD., priority 2019, dated 2024).
